Experimental data as given in US20240295567A1, “HYPOXIA BIOMARKER AND USE THEREOF” (Kyoto University, priority 2021, published 2024).

Assays:
[1] = test system: human prostate cancer-derived cell line DU145; experiment: Colony formation test after gamma ray irradiation with or without recombinant SPINK1 protein; format: cell-based; conditions: rSPINK1 100 ng/ml for 24 hours, 0, 2, 4 or 6 Gy gamma rays, cultured 14 days, FIG. 41
Protocol: Human prostate cancer-derived cell line DU145 was cultured in serum-free medium under normal oxygen (20%) conditions for 24 hours. The medium was then replaced with normal medium (containing 5% serum) containing a recombinant SPINK1 protein at a final concentration of 100 ng/ml or with normal medium not containing the recombinant SPINK1 protein. The cells were cultured under normal oxygen conditions for 24 hours. The cells were then irradiated with 0, 2, 4, or 6 Gy gamma rays and cultured for 14 days. A colony formation test was then performed.

[2] = test system: human prostate cancer-derived cell line DU145; experiment: Viable cell quantification (Cell Count Reagent SF) after gamma ray irradiation with or without recombinant SPINK1 and anti-SPINK1 antibody; format: cell-based; conditions: recombinant SPINK1 purified protein for 24 hours, 0 or 4 Gy gamma rays, 3 further days, FIG. 43
Protocol: Human prostate cancer-derived cell line DU145 was seeded into 96-well cell culture plates (4×10^2 cells per well in a 96-well plate when the dose of the subsequent irradiation is 0 Gy; and 1.2×10^3 cells per well when the dose is 4 Gy) and cultured in a CO2 incubator under a normal oxygen concentration overnight. Thereafter, the cells were cultured in serum-free medium for another 24 hours and then cultured in the presence or absence of recombinant SPINK1 purified protein and in the presence or absence of anti-SPINK1 antibody under normal oxygen conditions for 24 hours. The cells were then irradiated with 0 Gy or 4 Gy gamma rays and cultured under normal oxygen conditions for an additional 3 days. Viable cells were then quantified with Cell Count Reagent SF (produced by Nacalai Tesque, Inc., Catalog #07553-44).

recombinant SPINK1 protein: recombinant SPINK1 (serine protease inhibitor Kazal type I) protein added to culture medium (DSLGREAKCYNELNGCTKIYDPVCGTDGNTYPNECVLCFENRKRQTSILIQKSGPC; UniProt P00995 24-79, looked up)
radiation resistance of the cells (colony formation) [1]: radiation resistance of the cells is induced
radiation resistance of the cells (viable cells) [2]: radiation resistance of the cells was induced
